Assay results: the supplement of paper PMC11997997

Assays:
[1] = system: murine bone marrow-derived macrophages; assay: area under cytotoxicity dose-response curve (AUC (% cytotoxicity x dose, relative)); higher = more cytotoxic; conditions: duration: 6 days; dose range: 0.13-80 uM, 8 points
Procedure, shortened: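 An 8-point, 2.5-fold dilution series (final 80–0.13 μM) was applied for 6 days at 37 °C in 5% CO2 to primary murine bone marrow-derived macrophages plated in opaque 384-well plates. Promega's CellTiter-Glo luminescence assay measured viability, and percent cytotoxicity was normalised against vehicle and positive control wells. The area under the dose–response curve, worked out in GraphPad Prism version 10, is the reported cytotoxicity measure.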

[2] = system: Mycobacterium tuberculosis CDC1551 (intracellular, in murine BMDM); assay: area under intracellular growth-inhibition dose-response curve (AUC (% inhibition x dose, relative)); higher = more potent; conditions: duration: 6 days; dose range: 0.13-80 uM, 8 points
Procedure, shortened: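 Each value is an area under the growth-inhibition dose–response curve, calculated with GraphPad Prism. Infected primary murine bone marrow-derived macrophages, carrying luciferase-expressing M. tuberculosis CDC1551 at multiplicity of infection 1, were treated for 6 days with an 8-dose, 2.5-fold series (final 80–0.13 μM) in 384-well opaque plates. Readout was by Bright-Glo luciferin assay, normalised to a reference drug control and the lowest-concentration wells.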

SMILES	area under cytotoxicity dose-response curve [1]	area under intracellular growth-inhibition dose-response curve [2]
C=C1C(=O)O[C@@H]2C[C@@H](C)[C@@H]3C=CC(=O)[C@@]3(C)[C@@H](OC(=O)CC(=O)O[C@H]3[C@@H]4C(=C)C(=O)O[C@@H]4C[C@@H](C)[C@@H]4C=CC(=O)[C@]43C)[C@H]12	35	87.6
NC(=S)N/N=C/c1ccc(-c2ccc([N+](=O)[O-])cc2)o1	< 0	217
O=C(c1cccc(C(F)(F)F)c1)N1CCCC1	< 0	232
C[C@H]1COc2c(N3CCN(C)CC3)c(F)cc3c(=O)c(C(=O)O)cn1c23	137	200
O=C(CSc1nc2ccccc2s1)NCc1cc([N+](=O)[O-])ccc1O	48	39.4
NC(=S)N/N=C/c1ccc(-c2cc(Cl)cc(Cl)c2)o1	41.6	230
COc1cc(CNC23CC4CC(CC(C4)C2)C3)ccc1OCc1ccccc1.Cl	89.1	143
Cc1cc(OCCCCn2ccnc2)cc(C)c1Cl.Cl	24	174
CCOC(=O)c1c(NC(=O)CN2C(=O)N(C)C3(CCCCC3)C2=O)sc(C(=O)N(C)C)c1C	38.6	65
CC(=O)c1c(C)[n+]([O-])c2ccccc2[n+]1[O-]	17.5	84.7
O=C(CC12CC3CC(CC(C3)C1)C2)NCc1ccco1	60.5	224
C[C@@H]1C2CC(C/C2=N\NC(=O)c2ccncc2)C1(C)C (some centres undefined)	< 0	260
O=C(c1ccc(Cl)c(Cl)c1)N1CCCC1	52.5	86.7
O=C(O)C(=O)O.O=[N+]([O-])c1ccc(N2CCN(Cc3ccc([N+](=O)[O-])o3)CC2)cc1	45.2	245
O=C(NC1CCCCC1)c1ccc2snnc2c1	< 0	156
CC(NC(=O)c1ccccc1F)c1ccccc1 (centres undefined)	53.4	95.2
O=c1c2ccsc2ncn1Cc1ccc(Cl)cc1	15	120
O=C(NC1CCCCCCC1)c1ccc(Br)o1	38.5	251
Cc1cccc(-c2nsc(SCC(=O)N3CCCC3)n2)c1	98	224
O=C(NN=C1CCCCCC1)c1ccncc1	11.3	273
C/C(=N/NC(N)=S)c1ccc(Br)s1	< 0	268

SMILES	area under cytotoxicity dose-response curve [1]	area under intracellular growth-inhibition dose-response curve [2]
O=C(CCCOc1ccccc1)NNC(=O)c1ccncc1	< 0	263
CNC[C@H](Cc1ccccc1)NC[C@@H](Cc1cccc2ccccc12)NCCc1ccc(C)cc1	108	53.8
CC[C@@H](C)[C@@H]1CN([C@@H](C)CN2CCC[C@H]2CN2C(N)=NC[C@@H]2Cc2ccccc2)C(=N)N1CCc1ccc(Cl)c(Cl)c1	< 0	167
CC(C)(C)C(=O)/C(=C/c1ccncc1)n1cncn1	106	32
NS(=O)(=O)c1ccc(NC(=S)Nc2ccc(OCc3ccccc3)cc2)cc1	< 0	244
COc1cc(/C=N/NC(=O)c2ccncc2)ccc1OC(=O)c1cccc(F)c1	88.7	111
Cc1ccc(-[n+]2c(-c3ccc(Br)cc3)cn3c2CCc2ccc4cccnc4c2-3)cc1.[Br-]	29	96.2
Cc1ccccc1-n1c(C)cc(/C=N/NC(=O)c2ccncc2)c1C	< 0	214
CCC(=O)NC(=S)Nc1ccc(NC(=S)NC(=O)c2ccccc2)cc1	48.6	263
CN(Cc1ccccc1)c1ccc2nnc(-c3ccccc3)n2n1	< 0	169
CC(C)OC(=O)c1c2c(n3ccccc13)C(=O)c1ccccc1C2=O	36.2	209
N#CCc1ccc(NC(=O)/C=C/c2ccc([N+](=O)[O-])o2)cc1	124	35
Cc1cc(NS(=O)(=O)c2ccc(NC(=S)Nc3ccc(Cl)cc3C)cc2)no1	7.59	102
O=C(NC(=S)Nc1ccc(NC(=O)c2cccs2)cc1)c1ccco1	< 0	268
CN(CC(=O)Nc1ccc(OC(F)(F)F)cc1)C(=O)/C=C/c1cc2c(cc1[N+](=O)[O-])OCO2	< 0	135
CCN1/C(=C\c2ccc3ccccc3[n+]2CC)Sc2cc(C)ccc21.[I-]	175	117
CC(=O)Nc1sc(N/N=C/c2ccc(O)cc2)nc1-c1ccc(C)cc1	84.1	181
CN(Cc1ccccc1)C(=O)CCc1ccccc1	< 0	181
O=C(c1ccc([N+](=O)[O-])o1)N1CCN(c2nc3ccc(F)cc3s2)CC1	12.7	22.9
CC[C@H](CO)NCCN[C@H](CC)CO.Cl	52.1	68.5
O=C(N/N=C/c1ccc([N+](=O)[O-])o1)C(O)c1ccccc1 (centres undefined)	72.7	123

SMILES	area under cytotoxicity dose-response curve [1]	area under intracellular growth-inhibition dose-response curve [2]
CN(C)c1nc(-c2ccccn2)nnc1-c1ccccc1	120	149
Cc1nnc(SCC2=C(C(=O)O)N3C(=O)C(NC(=O)C(C)n4nc(C(F)(F)F)cc4C)C3SC2)s1 (centres undefined)	2.61	176
CC1(C)C2CCC1(C)C(NC(=O)/C=C/c1ccccc1)C2 (centres undefined)	58.5	242
O=C(NCc1cccc(C(F)(F)F)c1)c1ccc[nH]1	2.14	91
COc1c(N2CCN(C(=S)Nc3ccccc3F)C(C)C2)c(F)cc2c(=O)c(C(=O)O)cn(C3CC3)c12 (centres undefined)	< 0	275
CC(C)c1ccc(NC(=S)NC2CCCCCC2)cc1	< 0	141
COCC(=O)Nc1nnc(Cc2ccc(OC)cc2)s1	21.6	159
O=C(NCc1ccco1)c1csc2c1CCCCC2	55.5	212
On1c(-c2ccc(Cl)cc2)nc2ccccc21	124	63.1
O=C(N/N=C/C=C\c1ccccc1[N+](=O)[O-])c1ccncc1	5.73	260
CCCCN(C(=O)c1ccco1)c1c(N)n(CCC)c(=O)[nH]c1=O	53.6	< 0
COc1cc(/C=N/NC(=O)c2ccncc2)ccc1OC(C)=O	37.6	273
CC1CCC(C(C)C)C(OC(=O)C[n+]2c(-c3ccc(Br)cc3)n(C)c3ccccc32)C1.[Cl-] (centres undefined)	82.2	192
CCCCCC(=O)N1CCCC1	20.6	139
O=C(N/N=C/c1ccc(OCc2cnc(Cl)s2)cc1)c1ccncc1	48.7	238
COC(=O)Cc1ccc(NC(=S)Nc2ccc(N3CCOCC3)cc2)cc1	50.5	241
O=C(NCc1ccccc1F)c1ccc2c(c1)OCO2	87.2	79.5
CCOC(=O)C(CC)(CC)/C(C)=N/NC(=O)CC#N	20	19.5
Cc1ccc(C2=NN(C(=O)CCl)C(c3ccco3)C2)o1 (centres undefined)	73.1	88.6
Cc1ccc(S(=O)(=O)[O-])cc1.c1cnc2c(c1)ccc1ccc[nH+]c12	114	94
